For one assay, the target named is Pim1 kinase (Homo sapiens, UniProt P11309). As to the kind of experiment: Pim1 ATP depletion assay.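 Further: Luciferase-luciferin luminescence readout of residual ATP after PIM1 transfers phosphate to a peptide substrate, 40 µM ATP added, reaction run to roughly half ATP consumption.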 In kind it is biochemical.
A further assay addresses Pim2 kinase (Homo sapiens, UniProt Q9P1W9). Briefly: Pim2 ATP depletion assay.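 Further: Luciferase-based luminescent readout of ATP remaining after PIM2 phosphorylates a BAD peptide, final 5 nM enzyme, 4 µM ATP, 10 µM peptide, 2.5% DMSO, run to roughly half ATP consumption.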 In kind it is biochemical. The settings on record: read-out: IC50 (μM) PIM2.
The target of the next assay is Pim3 kinase (Homo sapiens, UniProt Q86V86). Briefly: Pim3 ATP depletion assay. The settings on record: read-out: IC50 (μM) PIM3. In kind it is biochemical.
A further assay has as its system HEL 92.1.7 cells. Briefly: Cell proliferation assay (CellTiter-Glo), HEL 92.1.7. It is filed as cell-based. The note with it: Homo sapiens, read-out: EC50 (μM) HEL 92.1.7. In outline: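 Cells in RPMI1640 with 10% FBS were seeded at 1000 cells/well and exposed to compound dilutions from DMSO stocks for 3 days at 37 °C. Viability was read by CellTiter-Glo luminescence. EC50 was derived from percent inhibition relative to DMSO-only and control-compound wells.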
On the technique in general: ATP-based viability assays read luminescence as a measure of living cells.

The target of assay [1] is T1, human full length PKCE enzyme (Homo sapiens, UniProt Q02156).
T1 construct: human full length PKCE enzyme purchased from InVitrogen; purchased InVitrogen
T1 sequence (Q02156 1-737): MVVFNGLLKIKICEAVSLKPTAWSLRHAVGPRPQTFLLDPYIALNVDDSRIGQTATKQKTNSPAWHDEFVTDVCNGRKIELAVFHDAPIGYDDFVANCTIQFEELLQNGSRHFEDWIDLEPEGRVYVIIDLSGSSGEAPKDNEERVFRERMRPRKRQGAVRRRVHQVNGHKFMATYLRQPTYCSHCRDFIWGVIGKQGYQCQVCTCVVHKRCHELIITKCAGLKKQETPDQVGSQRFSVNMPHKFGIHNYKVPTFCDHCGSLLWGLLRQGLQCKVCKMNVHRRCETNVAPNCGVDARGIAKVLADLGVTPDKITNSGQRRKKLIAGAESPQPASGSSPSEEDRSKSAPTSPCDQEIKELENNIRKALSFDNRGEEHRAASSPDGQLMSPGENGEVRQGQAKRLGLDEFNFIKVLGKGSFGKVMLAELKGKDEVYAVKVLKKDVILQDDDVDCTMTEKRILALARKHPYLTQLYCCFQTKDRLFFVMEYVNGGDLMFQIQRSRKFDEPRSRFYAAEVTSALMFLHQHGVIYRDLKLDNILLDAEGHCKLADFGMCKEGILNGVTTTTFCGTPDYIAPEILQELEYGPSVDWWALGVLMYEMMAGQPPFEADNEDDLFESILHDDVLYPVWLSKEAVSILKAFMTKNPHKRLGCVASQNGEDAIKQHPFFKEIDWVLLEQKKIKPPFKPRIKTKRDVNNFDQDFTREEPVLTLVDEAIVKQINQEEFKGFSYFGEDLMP
Briefly: In vitro PKCE assay. In kind it is biochemical. The note with it: 10 nM enzyme, 40 uM peptide substrate, 20 uM ATP, KinaseGlo Plus readout; read-out: PKCε IC50. Background: Kinase-Glo measures the ATP left after a reaction by luminescence.

A further assay concerns the target KDR kinase (Homo sapiens, UniProt P35968). Briefly: KDR AlphaScreen assay. The note with it: KDR IC50 (μM). (In general: In Alpha technology, singlet oxygen from a donor bead excites a nearby acceptor bead.)
Setting [2] is: Pim1 ATP depletion assay, read-out: IC50 (μM) PIM1.

Where two headings read alike, the source gives them in different places.

Pim1 kinase, sequence (P11309 whole entry): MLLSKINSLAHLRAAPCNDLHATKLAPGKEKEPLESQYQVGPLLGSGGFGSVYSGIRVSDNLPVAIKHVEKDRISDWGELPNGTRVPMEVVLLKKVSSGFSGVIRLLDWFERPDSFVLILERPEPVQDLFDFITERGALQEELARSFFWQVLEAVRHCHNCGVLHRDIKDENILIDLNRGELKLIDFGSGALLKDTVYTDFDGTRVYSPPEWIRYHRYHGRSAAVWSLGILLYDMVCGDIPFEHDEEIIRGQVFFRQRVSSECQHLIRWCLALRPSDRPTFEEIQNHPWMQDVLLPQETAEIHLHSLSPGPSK
Pim2 kinase, sequence (Q9P1W9 whole entry): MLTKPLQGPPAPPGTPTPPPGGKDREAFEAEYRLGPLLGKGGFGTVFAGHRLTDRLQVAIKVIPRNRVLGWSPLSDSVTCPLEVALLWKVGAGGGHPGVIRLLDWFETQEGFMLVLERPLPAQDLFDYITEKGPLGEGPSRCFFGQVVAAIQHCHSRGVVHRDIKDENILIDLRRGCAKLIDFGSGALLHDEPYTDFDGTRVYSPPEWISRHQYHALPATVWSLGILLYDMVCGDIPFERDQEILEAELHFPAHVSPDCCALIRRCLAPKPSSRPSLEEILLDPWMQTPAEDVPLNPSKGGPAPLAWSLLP
KDR kinase, sequence (P35968 20-1356): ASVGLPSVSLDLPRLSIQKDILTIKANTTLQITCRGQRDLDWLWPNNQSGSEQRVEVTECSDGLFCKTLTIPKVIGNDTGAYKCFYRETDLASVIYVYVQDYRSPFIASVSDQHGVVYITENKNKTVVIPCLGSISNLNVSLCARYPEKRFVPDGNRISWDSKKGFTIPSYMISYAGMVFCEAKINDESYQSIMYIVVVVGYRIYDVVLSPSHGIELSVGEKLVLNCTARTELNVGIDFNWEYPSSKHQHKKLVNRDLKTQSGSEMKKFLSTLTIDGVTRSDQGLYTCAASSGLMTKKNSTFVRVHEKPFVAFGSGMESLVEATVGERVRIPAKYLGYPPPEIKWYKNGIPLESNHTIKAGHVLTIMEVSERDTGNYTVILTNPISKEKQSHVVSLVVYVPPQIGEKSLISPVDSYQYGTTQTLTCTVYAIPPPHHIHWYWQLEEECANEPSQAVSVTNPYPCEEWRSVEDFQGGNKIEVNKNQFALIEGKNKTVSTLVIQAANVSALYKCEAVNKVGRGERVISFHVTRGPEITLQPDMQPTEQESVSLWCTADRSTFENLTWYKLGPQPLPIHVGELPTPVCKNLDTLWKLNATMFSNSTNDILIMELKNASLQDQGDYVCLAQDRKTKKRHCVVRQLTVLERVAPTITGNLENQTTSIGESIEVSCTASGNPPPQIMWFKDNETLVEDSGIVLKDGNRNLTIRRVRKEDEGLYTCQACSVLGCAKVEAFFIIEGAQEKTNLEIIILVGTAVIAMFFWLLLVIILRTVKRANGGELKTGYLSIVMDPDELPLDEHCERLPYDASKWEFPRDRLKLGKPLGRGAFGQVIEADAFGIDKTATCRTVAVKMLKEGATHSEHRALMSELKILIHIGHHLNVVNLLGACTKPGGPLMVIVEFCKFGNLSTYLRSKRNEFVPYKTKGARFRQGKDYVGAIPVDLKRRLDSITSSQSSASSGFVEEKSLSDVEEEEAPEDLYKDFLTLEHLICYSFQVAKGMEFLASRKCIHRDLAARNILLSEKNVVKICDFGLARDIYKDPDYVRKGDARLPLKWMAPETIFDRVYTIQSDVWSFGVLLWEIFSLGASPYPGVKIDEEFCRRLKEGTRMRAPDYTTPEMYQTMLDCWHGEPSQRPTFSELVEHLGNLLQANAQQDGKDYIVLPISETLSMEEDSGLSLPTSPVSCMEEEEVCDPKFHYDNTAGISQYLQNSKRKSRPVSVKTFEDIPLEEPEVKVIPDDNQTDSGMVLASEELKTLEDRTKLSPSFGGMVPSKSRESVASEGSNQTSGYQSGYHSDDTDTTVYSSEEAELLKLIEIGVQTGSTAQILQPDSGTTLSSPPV

As to `Nc1cccnc1C(=O)Nc1cnccc1N1CCC[C@H](N)C1` [Example 175, 3-amino-N-{4-[(3S)-3-amino-piperidin-1-yl]pyridin-3-yl}-pyridine-2-carboxamide], the IC50 was less than 1 µM on Pim1 kinase; less than 1 µM on Pim2 kinase; less than 1 µM on Pim3 kinase; 1000 to 10000 nM in assay [1]; more than 25 µM against KDR kinase. Further, the EC50 with HEL 92.1.7 cells was more than 10 µM.

In the case of `NCC1CCCN(c2ccncc2NC(=O)c2nc(Cl)c(N)nc2N)C1` (stereo not drawn) [Example 182, 3,5-diamino-N-{4-[3-(amino-methyl)piperidin-1-yl]pyridin-3-yl}-6-chloropyrazine-2-carboxamide], the IC50 at Pim1 kinase (setting [2]) is less than 1 µM; at Pim2 kinase it was less than 1 µM; on Pim3 kinase, less than 1 µM; in assay [1] it was 1000 to 10000 nM; against KDR kinase, 1 to 10 µM. In the assay on HEL 92.1.7 cells, the EC50 is less than 1 µM.

Take `Nc1nc(N)c(C(=O)Nc2cnccc2N2CCCC(N)C2)nc1Cl` (stereo not drawn) [Example 183, 3,5-diamino-N-[4-(3-amino-piperidin-1-yl)pyridin-3-yl]-6-chloropyrazine-2-carboxamide]: the IC50 was less than 1 µM at Pim1 kinase (setting [2]); less than 1 µM on Pim2 kinase; less than 1 µM on Pim3 kinase; 10000 to 25000 nM in assay [1]; 1 to 10 µM against KDR kinase. The EC50 in the assay on HEL 92.1.7 cells was less than 1 µM.

Consider `NCC1CCCN(c2ccncc2NC(=O)c2nccnc2N)C1` (stereo not drawn) [Example 184, 3-amino-N-{4-[3-(aminomethyl)-piperidin-1-yl]pyridin-3-yl}pyrazine-2-carboxamide], for which the IC50 against Pim1 kinase is less than 1 µM; at Pim2 kinase, 1 to 10 µM; on Pim3 kinase, less than 1 µM; in assay [1] it was less than 1000 nM; against KDR kinase it was 10 to 25 µM. The EC50 in the assay with HEL 92.1.7 cells was less than 1 µM.

Take `NCCC(=O)N1CCN(c2ccncc2NC(=O)c2nc(Cl)c(N)nc2N)CC1` [Example 185, 3,5-Diamino-6-chloro-pyrazine-2-carboxylic acid {4-[4-(3-amino-propionyl)-piperazin-1-yl]-pyridin-3-yl}-amide]: the IC50 on Pim1 kinase (setting [2]) was less than 1 µM; on Pim2 kinase, less than 1 µM; on Pim3 kinase, less than 1 µM; in assay [1], 1000 to 10000 nM; against KDR kinase, 1 to 10 µM. The EC50 in the assay with HEL 92.1.7 cells was less than 1 µM.

For `Nc1nccnc1C(=O)Nc1[nH]c(=O)ncc1N1CCCC(N)C1` (stereo not drawn) [Example 235, 3-amino-N-[5-(3-aminopiperidin-1-yl)-2-oxo-2,3-dihydro-pyrimidin-4-yl]pyrazine-2-carboxamide], the IC50 on Pim1 kinase (setting [2]) was less than 1 µM; at Pim2 kinase, less than 1 µM; on Pim3 kinase, less than 1 µM; in assay [1] it was less than 1000 nM; against KDR kinase, 10 to 25 µM. Besides, the EC50 in the assay with HEL 92.1.7 cells is more than 10 µM.

As for `CS(=O)(=O)c1cccc(-c2ccc(N)c(C(=O)Nc3cnccc3N3CCC[C@H](N)C3)n2)c1` [Example 320], the IC50 is less than 1 µM on Pim1 kinase (setting [2]); less than 1 µM at Pim2 kinase; less than 1 µM at Pim3 kinase; 10000 to 25000 nM in assay [1]; more than 25 µM at KDR kinase. Besides, the EC50 with HEL 92.1.7 cells was more than 10 µM.

On to `N#Cc1ccccc1-c1ccc(N)c(C(=O)Nc2cnccc2N2CCC[C@H](N)C2)n1` [Example 332, 3-amino-6-(2-cyano-phenyl)-pyridine-2-carboxylic acid ((S)-3-amino-3,4,5,6-tetra-hydro-2H-[1,4′]bipyridinyl-3′-yl)-amide], for which the IC50 is less than 1 µM on Pim1 kinase (setting [2]); less than 1 µM on Pim2 kinase; less than 1 µM at Pim3 kinase; 1000 to 10000 nM in assay [1]; more than 25 µM against KDR kinase. Further, in the assay with HEL 92.1.7 cells, the EC50 was 1 to 5 µM.

In the case of `Cc1ccc(F)c(-c2ccc(N)c(C(=O)Nc3cnccc3N3CCC[C@H](N)C3)n2)c1` [Example 333, 3-amino-6-(2-fluoro-5-methyl-phenyl)-pyridine-2-carboxylic acid ((S)-3-amino-3,4,5,6-tetrahydro-2H-[1,4′]bi-pyridinyl-3′-yl)-amide], the IC50 is less than 1 µM at Pim1 kinase (setting [2]); less than 1 µM at Pim2 kinase; less than 1 µM on Pim3 kinase; 10000 to 25000 nM in assay [1]; more than 25 µM at KDR kinase. For the same compound, the EC50 with HEL 92.1.7 cells lay in the range of 1 to 5 µM.

The IC50 is the midpoint of a concentration-inhibition curve. A word on the EC50: it is the concentration giving half of the maximal effect.
